Test results: ChEMBL document CHEMBL3758174, “Discovery and Characterization of 2-Acylaminoimidazole Microsomal Prostaglandin E Synthase-1 Inhibitors” (J Med Chem, 2016)
Values after ≈ are worked out from the molar mass of the structure shown. Active and inactive are the calls of the source. The calls are words filed in the database; no cut-off is given here.

What was measured:
[1] = molecular target: T1, Cyclooxygenase (Homo sapiens) (UniProt P35354+P23219); test: Inhibition of COX in human whole blood assessed as decrease in TXB2 production up to 30 uM; type: tissue-based
T1 sequence (P23219 whole entry, looked up, one chain of several): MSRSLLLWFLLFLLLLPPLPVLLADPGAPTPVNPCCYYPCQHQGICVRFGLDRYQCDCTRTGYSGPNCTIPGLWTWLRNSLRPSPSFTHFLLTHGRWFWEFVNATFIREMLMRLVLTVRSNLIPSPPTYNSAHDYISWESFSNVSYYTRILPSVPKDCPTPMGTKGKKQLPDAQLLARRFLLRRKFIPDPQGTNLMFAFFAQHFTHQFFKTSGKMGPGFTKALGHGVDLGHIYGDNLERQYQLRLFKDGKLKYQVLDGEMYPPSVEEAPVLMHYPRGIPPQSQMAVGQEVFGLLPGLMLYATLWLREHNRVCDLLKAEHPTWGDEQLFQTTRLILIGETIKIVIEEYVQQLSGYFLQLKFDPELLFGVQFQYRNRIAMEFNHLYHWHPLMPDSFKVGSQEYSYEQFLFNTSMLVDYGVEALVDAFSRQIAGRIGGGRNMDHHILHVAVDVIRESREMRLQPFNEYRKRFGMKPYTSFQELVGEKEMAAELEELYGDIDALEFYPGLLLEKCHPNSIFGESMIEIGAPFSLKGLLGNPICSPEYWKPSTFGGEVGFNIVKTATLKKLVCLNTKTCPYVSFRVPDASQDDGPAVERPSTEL

[2] = molecular target: T2, Prostaglandin E synthase (Homo sapiens) (UniProt O14684); test: (§1) Inhibition of mPGES1 in LPS-induced human whole blood assessed as suppression of PGE2 response after 20 to 24 hrs by LC-MS/MS analysis; type: tissue-based
T2 sequence (whole entry): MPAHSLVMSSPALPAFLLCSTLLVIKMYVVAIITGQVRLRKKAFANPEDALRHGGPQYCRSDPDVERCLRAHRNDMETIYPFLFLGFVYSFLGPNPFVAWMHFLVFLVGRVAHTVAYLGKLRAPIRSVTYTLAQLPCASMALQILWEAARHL

Prostaglandin E synthase [3] = molecular target: T3, Prostaglandin E synthase (Homo sapiens, UniProt O14684); test: as §1; type: tissue-based
T3 sequence (O14684 whole entry): T2 sequence (whole entry)

Prostaglandin E synthase [4] = molecular target: T3, Prostaglandin E synthase; test: Inhibition of human microsomal PGES1 expressed in 293E cells by LC/MS/MS analysis; type: cell-based
[5] = molecular target: T1, Cyclooxygenase (Homo sapiens); test: Inhibition of COX in human A549 cells assessed as reduction in PGE2 production at 10 uM; type: cell-based
Prostaglandin E synthase [6] = molecular target: T3, Prostaglandin E synthase; test: Inhibition of mPGES1 in rhIL-1beta-stimulated human A549 cells assessed as PGE2 level treated for 18 hrs after 30 mins pre-incubation with rhIL-1beta by EIA method; type: cell-based
CYP3A4 [7] = molecular target: T4, CYP3A4 (Homo sapiens, UniProt P08684); test: Inhibition of microsomal CYP3A4 (unknown origin) using bufuralol/midazolam/diclofinac as substrate assessed as 1-hydroxybufuralol maleate-d9/alpha-hydroxymidazolam-d4/[13C6]-4-hydroxydiclofinac formation at 10 uM pre-incubated for 10 mins before NADPH addition by LC-MS/MS analysis; type: ADME; conditions: microsomes, probe bufuralol/midazolam/diclofinac
T4 sequence (P08684 whole entry): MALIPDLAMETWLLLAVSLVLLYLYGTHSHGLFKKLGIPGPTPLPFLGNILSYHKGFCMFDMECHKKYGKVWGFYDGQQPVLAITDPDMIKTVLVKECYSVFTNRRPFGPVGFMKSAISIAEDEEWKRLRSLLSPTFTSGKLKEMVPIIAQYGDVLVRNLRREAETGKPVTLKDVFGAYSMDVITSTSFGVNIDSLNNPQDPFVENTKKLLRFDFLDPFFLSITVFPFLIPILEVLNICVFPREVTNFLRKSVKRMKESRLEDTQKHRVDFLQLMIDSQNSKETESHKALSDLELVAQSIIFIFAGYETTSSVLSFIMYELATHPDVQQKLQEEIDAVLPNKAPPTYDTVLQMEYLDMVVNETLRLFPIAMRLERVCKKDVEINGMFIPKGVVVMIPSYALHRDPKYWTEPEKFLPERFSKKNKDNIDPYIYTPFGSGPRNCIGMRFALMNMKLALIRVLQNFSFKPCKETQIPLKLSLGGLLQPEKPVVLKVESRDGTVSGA

CYP3A4 [8] = molecular target: T4, CYP3A4; test: Time-dependent inhibition of microsomal CYP3A4 (unknown origin) using midazolam as substrate assessed as alpha-hydroxymidazolam-d4 at 10 uM pre-incubated for 12 mins before NADPH addition formation after 30 mins by LC-MS/MS analysis; type: ADME; conditions: microsomes, probe midazolam
[9] = molecular target: T5, Prostaglandin E synthase (Canis lupus familiaris) (UniProt A0SYQ0); test: (§2) Inhibition of mPGES1 in LPS-induced dog whole blood assessed as suppression of PGE2 response pre-incubated for 30 mins followed by LPS addition and measured after 5 hrs by LC-MS/MS analysis; type: tissue-based
T5 sequence (whole entry): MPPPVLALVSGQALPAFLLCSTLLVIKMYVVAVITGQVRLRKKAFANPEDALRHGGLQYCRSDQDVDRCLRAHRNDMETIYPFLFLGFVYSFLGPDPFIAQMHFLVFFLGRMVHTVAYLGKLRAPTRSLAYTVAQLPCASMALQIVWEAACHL

[10] = molecular target: T6, Prostaglandin G/H synthase 2 (Homo sapiens) (UniProt P35354); test: Inhibition of COX-2 (unknown origin) at 10 uM
T6 sequence (whole entry): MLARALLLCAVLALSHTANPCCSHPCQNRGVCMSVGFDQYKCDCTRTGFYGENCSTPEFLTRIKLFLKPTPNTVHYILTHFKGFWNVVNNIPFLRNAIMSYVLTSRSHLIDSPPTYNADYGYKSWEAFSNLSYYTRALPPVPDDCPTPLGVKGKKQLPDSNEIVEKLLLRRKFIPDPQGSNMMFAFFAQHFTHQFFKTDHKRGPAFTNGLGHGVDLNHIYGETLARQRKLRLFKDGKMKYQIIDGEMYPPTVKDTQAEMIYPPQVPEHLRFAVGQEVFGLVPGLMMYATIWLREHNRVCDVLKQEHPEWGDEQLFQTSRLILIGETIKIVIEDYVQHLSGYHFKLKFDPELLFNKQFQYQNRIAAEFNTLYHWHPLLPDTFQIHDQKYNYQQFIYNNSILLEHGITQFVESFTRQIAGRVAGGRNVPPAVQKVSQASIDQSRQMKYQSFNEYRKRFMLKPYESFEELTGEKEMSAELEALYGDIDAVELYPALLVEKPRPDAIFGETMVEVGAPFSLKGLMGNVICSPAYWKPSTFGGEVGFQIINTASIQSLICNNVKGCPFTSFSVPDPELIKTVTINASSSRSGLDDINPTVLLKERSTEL

[11] = molecular target: Prostaglandin G/H synthase 1 (Homo sapiens) (UniProt P23219); test: Inhibition of COX-1 (unknown origin) at 10 uM
Prostaglandin G/H synthase 1 (Homo sapiens), sequence (P23219 whole entry): as the sequence (P23219 whole entry, looked up, one chain of several) above

[12] = Stability of compound at 40 degC/75% RH; type: physicochemical
[13] = Stability of compound at 70 degC/75% RH; type: physicochemical
[14] = molecular target: T1, Cyclooxygenase (Homo sapiens); test: Inhibition of COX in human whole blood assessed as decrease in TXB2 production; type: tissue-based
[15] = molecular target: T1, Cyclooxygenase (Homo sapiens); test: Inhibition of COX in human A549 cells assessed as reduction in PGE2 production; type: cell-based
[16] = molecular target: T1, Cyclooxygenase (Homo sapiens); test: Inhibition of COX in human whole blood assessed as decrease in PGF2alpha production; type: tissue-based
[17] = molecular target: T6, Prostaglandin G/H synthase 2 (Homo sapiens); test: Inhibition of COX2 (unknown origin) at 30 uM
Prostaglandin E synthase [18] = molecular target: T7, Prostaglandin E synthase (Canis lupus familiaris, UniProt A0SYQ0); test: as §2; type: tissue-based
T7 sequence (A0SYQ0 whole entry): T5 sequence (whole entry)

[19] = molecular target: Voltage-gated inwardly rectifying potassium channel KCNH2 (Homo sapiens, UniProt Q12809); test: Inhibition of human ERG
Voltage-gated inwardly rectifying potassium channel KCNH2, sequence (Q12809 whole entry): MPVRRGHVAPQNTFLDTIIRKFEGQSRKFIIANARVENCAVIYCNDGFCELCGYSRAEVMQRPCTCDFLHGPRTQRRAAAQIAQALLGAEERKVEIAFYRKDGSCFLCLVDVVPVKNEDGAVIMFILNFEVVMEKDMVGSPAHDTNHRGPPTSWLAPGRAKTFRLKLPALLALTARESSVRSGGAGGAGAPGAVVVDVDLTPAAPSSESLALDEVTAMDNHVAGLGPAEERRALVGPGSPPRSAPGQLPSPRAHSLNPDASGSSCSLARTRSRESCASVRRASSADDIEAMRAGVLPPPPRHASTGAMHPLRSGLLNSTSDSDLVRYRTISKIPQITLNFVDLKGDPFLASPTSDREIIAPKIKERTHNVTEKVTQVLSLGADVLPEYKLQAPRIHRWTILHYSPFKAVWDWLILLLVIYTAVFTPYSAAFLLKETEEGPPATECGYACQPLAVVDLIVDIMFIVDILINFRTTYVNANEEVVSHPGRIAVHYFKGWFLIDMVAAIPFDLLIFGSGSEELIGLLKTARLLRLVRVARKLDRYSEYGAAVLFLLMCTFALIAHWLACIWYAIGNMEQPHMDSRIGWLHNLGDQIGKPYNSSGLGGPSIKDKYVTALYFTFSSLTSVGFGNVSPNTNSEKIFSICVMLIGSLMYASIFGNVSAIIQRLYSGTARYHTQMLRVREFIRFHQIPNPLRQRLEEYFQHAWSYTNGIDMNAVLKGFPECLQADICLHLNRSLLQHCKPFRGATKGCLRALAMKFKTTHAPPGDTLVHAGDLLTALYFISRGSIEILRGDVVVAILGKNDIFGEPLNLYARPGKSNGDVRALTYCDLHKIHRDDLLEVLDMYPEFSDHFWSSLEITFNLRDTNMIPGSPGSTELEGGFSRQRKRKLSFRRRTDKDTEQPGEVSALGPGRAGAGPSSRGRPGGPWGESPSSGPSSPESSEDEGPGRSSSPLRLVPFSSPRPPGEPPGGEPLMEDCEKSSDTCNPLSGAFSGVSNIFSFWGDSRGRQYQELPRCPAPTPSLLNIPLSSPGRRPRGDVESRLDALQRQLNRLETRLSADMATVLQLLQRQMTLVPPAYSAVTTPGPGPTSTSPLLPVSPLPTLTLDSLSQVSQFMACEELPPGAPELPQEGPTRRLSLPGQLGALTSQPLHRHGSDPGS

[20] = Solubility of compound in FasSIF at 2 mg at room temperature after 24 hrs by HPLC analysis; type: physicochemical
[21] = Inhibition of rat microsomal PGES1 expressed in 293E cells by LC/MS/MS analysis; type: cell-based
[22] = Oral bioavailability in beagle dog at 2 mg/kg after 0.25 to 24 hrs by LC-MS/MS analysis; type: ADME, organism-based, Canis lupus familiaris; conditions: in vivo
[23] = Plasma concentration in beagle dog at 2 mg/kg, po after 24 hrs by LC-MS/MS analysis; type: ADME, organism-based, Canis lupus familiaris
hERG [24] = molecular target: T8, hERG (Homo sapiens, UniProt Q12809); test: Inhibition of human ERG at 100 uM
T8 sequence (Q12809 whole entry): as above

hERG [25] = molecular target: T8, hERG; test: Inhibition of human ERG at 10 uM
[26] = molecular target: Prostaglandin G/H synthase 1 (Homo sapiens) (UniProt P23219); test: Inhibition of COX1 (unknown origin) at 100 uM
Plasma = test: Plasma concentration in beagle dog at 2 mg/kg, po after; type: ADME, organism-based, Canis lupus familiaris; conditions: in vivo
[27] = Oral bioavailability in beagle dog at 0.5 mg/kg after 0.25 to 24 hrs by LC-MS/MS analysis; type: ADME, organism-based, Canis lupus familiaris; conditions: in vivo

SMILES | inhibition [1] | IC80 [2] | IC50 (Prostaglandin E synthase [3]) | IC50 (Prostaglandin E synthase [4]) | inhibition [5] | IC50 (Prostaglandin E synthase [6]) | inhibition at 10 µM (CYP3A4 [7]) | inhibition at 0.5 h, 10 µM (CYP3A4 [8]) | other results
CC(C)(C)C(=O)NCc1ccc(C(F)(F)F)c(C(=O)Nc2ncc[nH]2)c1 | inactive | 10.5 µM | 2.14 µM | 1.08 µM | inactive | 3.23 µM |  |  | 
Cc1cc(Cl)c(C(=O)Nc2ncc[nH]2)cc1CNC(=O)C(C)C | inactive | 132 µM | 13 µM | 2.32 µM | inactive | 8.85 µM |  |  | 
Cc1nc(NC(=O)c2cc(CNC(=O)C(C)C)cnc2C(F)F)[nH]c1-c1ccc(Cl)cc1 |  | 0.48 µM | 0.091 µM | < 0.003 µM |  | 0.039 µM | 0% | 27% | 
CC(C)(C)C(=O)NCc1ccc(Br)c(C(=O)Nc2ncc[nH]2)c1 | inactive |  |  |  | inactive |  |  |  | 
CCC(=O)NCc1cnc(C(F)F)c(C(=O)Nc2nc(C)c(-c3ccc(C(F)(F)F)cc3)[nH]2)c1 |  | 0.991 µM | 0.374 µM | 0.0103 µM |  | 0.098 µM | 0% | 15% | 
Cc1nc(NC(=O)c2cc(CNC(=O)C(C)C)cnc2C(F)F)[nH]c1-c1ccc(C(F)(F)F)cc1 [listing 1 of 2 here] |  | 0.069 µM |  |  |  |  |  |  | IC80 [9]: 0.703 µM; inhibition [10]: inactive; inhibition [11]: inactive
Cc1nc(NC(=O)c2cc(CNC(=O)C(C)C)cnc2C(F)F)[nH]c1-c1ccc(C(F)(F)F)cc1.O=P(O)(O)O |  |  |  |  |  |  |  |  | Stability [12]: 4 weeks; Stability [13]: 2 weeks
CC(=O)NCc1cnc(C(F)F)c(C(=O)Nc2nc(C)c(-c3ccc(C(F)(F)F)cc3)[nH]2)c1 |  |  |  | 0.074 µM |  | 0.72 µM | 19% | 8% | 
CC(C)C(=O)NCc1ccc(C(F)F)c(C(=O)Nc2ncc(-c3ccc(Cl)cc3)[nH]2)c1 |  | 0.994 µM | 0.338 µM | < 0.003 µM |  | 0.019 µM | 44% | 75% | inhibition [14]: inactive; inhibition [15]: inactive; inhibition [16]: inactive
N#Cc1cccc(C#N)c1-c1nc2c3ccc(Cl)cc3c3ccccc3c2[nH]1 |  |  |  |  |  |  | 32% |  | 
CC(C)(C)C(=O)NCc1ccc(C(F)F)c(C(=O)Nc2ncc[nH]2)c1 | inactive | 33.7 µM | 1.43 µM | 0.676 µM | inactive | 3.25 µM |  |  | 
CC[C@H](C)C(=O)NCc1ccc(C(F)F)c(C(=O)Nc2ncc[nH]2)c1 | inactive | 21.1 µM | 10.5 µM | 1.12 µM | inactive | 8.86 µM |  |  | 
CCC(C)(C)C(=O)NCc1ccc(Cl)c(C(=O)Nc2ncc[nH]2)c1 | inactive | 9.37 µM | 0.853 µM | 0.385 µM | inactive | 1.23 µM |  |  | 
Cc1c(CC(C)(C)C(=O)O)n(Cc2ccc(Cl)cc2)c2ccc(-c3ccc(-c4ccccc4)c(F)c3)cc12 |  |  |  |  |  |  | 46% |  | 
Cc1ccc(CNC(=O)C(C)(C)C)cc1C(=O)Nc1ncc[nH]1 | inactive | 9.08 µM | 2.43 µM | 3.11 µM | inactive | 4.62 µM |  |  | inhibition [17]: 16%
Cc1nc(NC(=O)c2cc(CNC(=O)C(C)C)cnc2C(F)F)[nH]c1-c1ccc(C(F)(F)F)cc1 [listing 2 of 2 here] |  |  |  | 0.0009 µM |  |  | 0% | 23% | IC50 (Prostaglandin E synthase [18]): 0.139 µM; IC50 [19]: 82.6 µM; Ki [19]: 41.3 µM; solubility at 24 h [20]: 7 µg/mL (≈ 14.1 µM); IC50 [21]: 33.9 µM; bioavailability [22]: 37%; concentration at 24 h [23]: > 200 nM
CC(C)C(=O)NCc1cc(C(=O)Nc2ncc[nH]2)c(Cl)cc1F | inactive | 57.4 µM | 9.53 µM | 3.67 µM | inactive | > 10 µM |  |  | 
CC(C)(C)C(=O)NCc1ccc(Cl)c(C(=O)Nc2ncc[nH]2)c1 [LY-3031207] | inactive | 2.44 µM |  |  | inactive |  |  |  | inhibition at 100 µM (hERG [24]): 14%; inhibition at 10 µM (hERG [25]): -4%; IC80 [9]: 1.84 µM; IC50 (Prostaglandin E synthase [18]): 0.555 µM; inhibition [26]: 9%; concentration (Plasma): > 1000 nM; IC50 [21]: > 1000 µM; bioavailability [27]: 60%
CC(C)C(=O)NCc1ccc(Cl)c(C(=O)Nc2ncc[nH]2)c1 | inactive | 8.8 µM |  |  | inactive |  |  |  | 
CC(C)C(=O)NCc1cnc(C(F)F)c(C(=O)Nc2ncc(-c3ccc(Cl)cc3)[nH]2)c1 |  | 0.146 µM | 0.029 µM | < 0.003 µM |  | 0.037 µM | 22% | 72% | inhibition [14]: inactive; inhibition [15]: inactive; inhibition [16]: inactive
